{"source": "patent US8871899B2", "about": "“Control of viral-host membrane fusion with hydrogen bond surrogate-based artificial helices” (priority 2007, dated 2014)", "key": {"[1]": {"system": "CHO[HIVe] (clone 7d2) cells expressing HXB2 envelope and tat cocultured with U373-MAGI cells", "format": "cell-based, HIV-1", "experimental": "Cell-cell fusion (i.e., syncytium formation) was assayed by coculturing CHO[HIVe] (clone 7d2) cells expressing HXB2 envelope and tat with U373-MAGI cells (M. Emerman and A. Geballe, National Institutes of Health AIDS Research and Reference Reagent Program) in the presence of different concentrations of peptides 1-10. Cell fusion allows the expression of nuclear β-galactosidase from the U373-MAGI indicator cell line and can be quantitated by monitoring β-galactosidase activity. After an overnight incubation at 37° C. after coculture, β-galactosidase enzymatic activity was measured with the Mammalian β-galactosidase Chemiluminescent Assay Kit (Gal-Screen from Applied Biosystems). The peptide inhibitor concentrations at which activities were reduced by 50% (IC50) relative to control samples lacking peptide inhibitor were calculated by fitting data to the variable-slope-sigmoid equation using the Prism program.\nCell-cell fusion (i.e., syncytium formation) was assayed by co-culturing CHO[HIVe] […] Cell fusion allows the expression of nuclear β-galactosidase from the U373-MAGI indicator cell line and can be quantitated by monitoring β-galactosidase activity."}, "[2]": {"molecular_target": "IZN17 (stable model of the gp41 N-terminal three strand coiled-coil)", "test": "Fluorescence polarization-based competitive binding assay (displacement of fluorescein-labeled peptide 12 from IZN17)", "set-up": "species or system HIV-1", "conditions": "for Binding to IZN17, result in words: fluorescence polarization competition with probe 12"}, "[3]": {"test": "Circular dichroism spectroscopy (helicity)", "format": "physicochemical", "conditions": "10% trifluoroethanol in PBS buffer", "experimental": "CD spectra were recorded on an AVIV 202SF CD spectrometer equipped with a temperature controller using 1 mm length cells and a scan speed of 5 nm/min. The spectra were averaged over 10 scans with the baseline subtracted from analogous conditions as that for the samples. The samples were prepared in 0.1× phosphate buffered saline (13.7 mM NaCl, 1 mM phosphate, 0.27 mM KCl, pH 7.4), containing 10% trifluoroethanol, with the final peptide concentration of 50-100 μM. The concentrations of unfolded peptides were determined by the UV absorption of the tyrosine residue at 276 nm in 6.0 M guanidinium hydrochloride aqueous solution. The helix content of each peptide was determined from the mean residue CD at 222 nm, [θ]222 (deg cm^2 dmol^−1) corrected for the number of amino acids. Percent helicity was calculated from the ratio [θ]222/[θ]max, where [θ]max=(−44000+250T)(1−k/n), with k=4.0 and n=number of residues. For details on θmax calculations for HBS helices, see Wang et al., “Evaluation of Biologically Relevant Short α-Helices Stabilized by a Main-chain Hydrogen-bond Surrogate,” J. Am. Chem. Soc. 128:9248-56 (2006), which is hereby incorporated by reference in its entirety.\nIt was conjectured that stabilization of this peptide in helical conformation with the HBS approach may increase its helicity and affinity for IZN17. […]"}, "[4]": {"system": "CHO[HIVe] (clone 7d2) cells expressing HXB2 envelope and tat cocultured with U373-MAGI cells", "conditions": "literature report; cited from earlier work"}, "[5]": {"molecular_target": "IZN17 (stable model of the gp41 N-terminal three strand coiled-coil)", "test": "Saturation binding of fluorescein-labeled peptide 12 with IZN17 (fluorescence polarization)", "set-up": "species or system HIV-1", "conditions": "saturation binding curve, PBS buffer at 25° C.", "experimental": "FIG. 14 is a graph showing the saturation binding curve of fluorescein-labeled peptide 12 with IZN17 in PBS buffer at 25° C.\nThe relative affinity of peptides 1-10 for IZN17 (i.e., peptide 11) was determined using a fluorescence polarization-based competitive binding assay (Eckert & Kim, “Design of Potent Inhibitors of HIV-1 Entry from the gp41 N-Peptide Region,” Proc. Nat'l Acad. Sci. U.S.A. 98:11187-92 (2001); Stephens et al., “Inhibiting HIV Fusion with a β-Peptide Foldamer,” J. Am. Chem. Soc. 127:13126-7 (2005), which are hereby incorporated by reference in their entirety) with fluorescein-labeled peptide 12, shown in FIG. 13. FIG. 14 is a graph showing the saturation binding curve of fluorescein-labeled peptide 12 with IZN17 in PBS buffer at 25° C.\nA previously described fluorescence polarization assay was utilized to determine the in vitro binding affinity of unconstrained peptides and HBS helices for a stable model of the gp41 N-terminal three strand coiled-coil, IZN17, which contains the binding site for residues W628, W631, and 1635 (see Example 3, supra) (Eckert & Kim, “Design of Potent Inhibitors of HIV-1 Entry from the gp41 N-Peptide Region,” Proc. Nat'l Acad. Sci. U.S.A. 98:11187-92 (2001), which is hereby incorporated by reference in its entirety). […]"}}, "note": "Where a SMILES comes first, the peptide text is derived from it. Where no end group is shown, it is not given here. The star is where a group is joined. 4‑pentenoyl = C=CCCC(=O)*"}
{"molecule": "CC[C@H](C)[C@H](NC(=O)[C@H](CCCCN)NC(=O)[C@H](CCCCN)NC(=O)[C@@H](NC(=O)[C@H](Cc1ccc(O)cc1)NC(=O)[C@H](CCC(=O)O)NC(=O)[C@H](CCC(=O)O)NC(=O)[C@@H](NC(=O)[C@H](CCCCN)NC(=O)[C@H](CCCCN)NC(=O)[C@H](CC(=O)O)NC(=O)[C@H](Cc1c[nH]c2ccccc12)NC(=O)[C@H](CCC(=O)O)NC(=O)[C@H](CCC(=O)O)NC(=O)[C@H](Cc1c[nH]c2ccccc12)N1CC=CCCC(=O)N[C@@H](CCSC)C(=O)N[C@@H]([C@@H](C)O)C1=O)[C@@H](C)CC)[C@@H](C)O)C(N)=O", "note": "[compound 9, XMTWEEWDKKIEEYTKKI]", "values": [{"measurement": "EC50", "setting": "[1]; overnight coculture at 37° C., β-galactosidase readout, read-out: EC50, inhibition of gp41-mediated cell fusion", "result": 43, "unit": "µM"}]}
{"molecule": "CC[C@H](C)[C@H](NC(=O)[C@H](CCC(=O)O)NC(=O)[C@H](CCCNC(=N)N)NC(=O)[C@H](CC(=O)O)NC(=O)[C@H](Cc1c[nH]c2ccccc12)NC(=O)[C@H](CCC(=O)O)NC(=O)[C@H](CCSC)NC(=O)[C@H](Cc1c[nH]c2ccccc12)NC(=O)[C@@H](NC(=O)[C@H](CCSC)NC(C)=O)[C@@H](C)O)C(=O)N[C@@H](CC(N)=O)C(=O)N[C@@H](CC(N)=O)C(=O)N[C@@H](Cc1ccc(O)cc1)C(=O)N[C@H](C(N)=O)[C@@H](C)O", "note": "[peptide 1, AcMTWMEWDREINNYT-NH2, reference compound] (Ac-MTWMEWDREINNYT-NH2)", "values": [{"measurement": "Kd", "setting": "[2]; PBS pH 7.4, 0.1% pluronic F-68, 25° C., 25 μM IZN17, 15 nM probe 12, values much lower than probe Kd are upper limits, read-out: Kd, binding affinity for IZN17 (competition assay)", "result": 37, "unit": "µM"}, {"measurement": "Helicity by CD, result in words", "setting": "[3]", "result": "unstructured or very weakly helical"}, {"measurement": "Activity in cell-cell fusion assays as previously shown (Sia et al.)", "setting": "[4]", "result": "ineffective in cell-cell fusion assays"}]}
{"molecule": "CC[C@H](C)[C@H](NC(=O)[C@H](CCCCN)NC(=O)[C@H](CCCCN)NC(=O)[C@@H](NC(=O)[C@H](Cc1ccc(O)cc1)NC(=O)[C@H](CCC(=O)O)NC(=O)[C@H](CCC(=O)O)NC(=O)[C@@H](NC(=O)[C@H](CCCCN)NC(=O)[C@H](CCCCN)NC(=O)[C@H](CC(=O)O)NC(=O)[C@H](Cc1c[nH]c2ccccc12)NC(=O)[C@H](CCC(=O)O)NC(=O)[C@H](CCC(=O)O)NC(=O)[C@H](Cc1c[nH]c2ccccc12)NC(=O)[C@@H](NC(=O)[C@H](CCSC)NC(C)=O)[C@@H](C)O)[C@@H](C)CC)[C@@H](C)O)C(N)=O", "note": "[peptide 10, AcMTWEEWDKKIEEYTKKI—NH2] (Ac-MTWEEWDKKIEEYTKKI-NH2)", "values": [{"measurement": "Binding to IZN17, result in words", "setting": "[2]", "result": "bound IZN17 with a similar affinity as 9"}, {"measurement": "Cell fusion inhibition, result in words", "setting": "[1]; concentrations up to 200 μM", "result": "remained ineffective in the cell culture assay"}]}
{"molecule": "Suc-MTWMEWDERINNYTC^Flu-NH2 [peptide 12]", "values": [{"measurement": "Kd", "setting": "[5]", "result": 24, "unit": "µM"}]}
{"molecule": "XMTWMEWDREINNYT ({4‑pentenoyl}-MTWMEWDREINNYT; staple (positions not given here); also: hydrogen bond surrogate, N-allyl residue position not given here) [compound 2]", "values": [{"measurement": "Binding to IZN17, result in words", "setting": "[2]", "result": "did not bind the target protein with higher affinity"}]}
